According to PubChem BioAssay (NCI):
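Abbreviation: GI50, concentration required for 50% inhibition of growth. TGI: total growth inhibition.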

Columns and labels:
Test in all cases: inhibition of tumour cell growth, NCI panel, 384-well format
NCI-H23 lung = tested on: NCI-H23 lung
NCI-H322M lung = tested on: NCI-H322M lung
NCI/ADR-RES ovarian = tested on: NCI/ADR-RES ovarian
MOLT-4 leukemia = tested on: MOLT-4 leukemia
KM12 colon = tested on: KM12 colon
UACC-257 melanoma = tested on: UACC-257 melanoma
UACC-62 melanoma = tested on: UACC-62 melanoma
786-0 renal = tested on: 786-0 renal
RXF 393 renal = tested on: RXF 393 renal
NCI-H522 lung = tested on: NCI-H522 lung
HCC-2998 colon = tested on: HCC-2998 colon
MDA-MB-468 breast = tested on: MDA-MB-468 breast
IGROV1 ovarian = tested on: IGROV1 ovarian

CCN(CC)CCNC(=O)c1c(C)[nH]c(/C=C2\C(=O)Nc3ccc(F)cc32)c1C
GI50 (NCI-H23 lung): 1.91 µM
TGI (NCI-H23 lung): 4.64 µM
GI50 (NCI-H322M lung): 2.41 µM
TGI (NCI-H322M lung): 8.96 µM
GI50 (NCI/ADR-RES ovarian): 2.56 µM
TGI (NCI/ADR-RES ovarian): 6.16 µM
GI50 (MOLT-4 leukemia): 1.03 µM
TGI (MOLT-4 leukemia): 2.28 µM
GI50 (KM12 colon): 0.0426 µM
TGI (KM12 colon): 4.7 µM
GI50 (UACC-257 melanoma): 1.71 µM
TGI (UACC-257 melanoma): 3.1 µM
GI50 (UACC-62 melanoma): 1.8 µM
TGI (UACC-62 melanoma): 4.46 µM
GI50 (786-0 renal): 1.62 µM
TGI (786-0 renal): 3.11 µM
GI50 (RXF 393 renal): 1.88 µM
TGI (RXF 393 renal): 3.53 µM
GI50 (NCI-H522 lung): 2.22 µM
TGI (NCI-H522 lung): 6.49 µM
GI50 (HCC-2998 colon): 1.71 µM
TGI (HCC-2998 colon): 3.32 µM
GI50 (MDA-MB-468 breast): 2.94 µM
TGI (MDA-MB-468 breast): 5.41 µM
GI50 (IGROV1 ovarian): 1.14 µM
TGI (IGROV1 ovarian): 5.97 µM
